In ChEMBL document CHEMBL5137064, “Therapeutic Potential and Activity Modulation of the Protein Lysine Deacylase Sirtuin 5” (J Med Chem, 2022):

What was measured:
[1] = target: T1, NAD-dependent protein deacetylase sirtuin-2 (Homo sapiens, UniProt Q8IXJ6); assay: Inhibition of recombinant SIRT2 (unknown origin) using […] as substrate incubated for 4 hrs by homogenous fluorescent deacetylase assay
T1 sequence (Q8IXJ6 whole entry): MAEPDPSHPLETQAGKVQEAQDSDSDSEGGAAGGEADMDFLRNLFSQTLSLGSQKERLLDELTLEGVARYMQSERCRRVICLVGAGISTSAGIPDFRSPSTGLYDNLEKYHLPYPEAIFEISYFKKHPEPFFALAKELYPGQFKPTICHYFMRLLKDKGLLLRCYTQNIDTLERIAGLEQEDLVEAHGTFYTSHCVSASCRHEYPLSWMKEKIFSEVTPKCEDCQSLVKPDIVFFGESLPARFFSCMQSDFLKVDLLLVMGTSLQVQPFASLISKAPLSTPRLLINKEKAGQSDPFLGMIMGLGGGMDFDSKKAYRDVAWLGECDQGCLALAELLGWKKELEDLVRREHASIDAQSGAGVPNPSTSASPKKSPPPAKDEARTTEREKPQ

[2] = Cytotoxicity against human PDAC cells assessed as cell viability; assay type: functional, cell-based

Structure (SMILES): Cc1ccc(C(=O)Nc2ccc(S(=O)(=O)O)c3cc(S(=O)(=O)O)cc(S(=O)(=O)O)c23)cc1NC(=O)c1cccc(NC(=O)Nc2cccc(C(=O)Nc3cc(C(=O)Nc4ccc(S(=O)(=O)O)c5cc(S(=O)(=O)O)cc(S(=O)(=O)O)c45)ccc3C)c2)c1 [SURAMIN]
- IC50 [1]: 1.15 µM

Structure (SMILES): CCOC(=O)C1=CN(C(=O)c2ccccc2)C=C(C(=O)OCC)C1c1cccc(OC)c1
- IC50 [2]: 25.4 µM
